Assay results published in the supplement of paper PMC8837787.

system: Saccharomyces cerevisiae ABC16-Green Monster; assay: growth inhibition at single dose (up to 150 µM), below the 70% cut-off for dose-response; higher = more potent; conditions: 18 h; 30 °C; YPD
Procedure, shortened: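 Drug-sensitive S. cerevisiae ABC16-Green Monster cells were grown overnight in YPD at 30 °C and diluted to log phase (OD600 0.1–0.2). Each library compound was added at one dose of 150 µM to 200 µl culture per well in 96-well plates, in biological duplicates, with untreated cultures alongside. OD600 was read at 0 h and after 18 h at 30 °C. The value is percent growth inhibition; compounds below 70% in both replicates were not taken to dose-response.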

| SMILES | growth inhibition at single dose [%] |
| --- | --- |
| COc1cccc(OC)c1C(=O)Nc1ccc(Cl)c(-c2nc3ccccc3s2)c1 | < 70 |
| N=c1n(CCN2CCCCC2)c2ccccc2n1CC(O)c1cccc(Br)c1 (configuration not stated) | < 70 |
| CC(=O)c1c(C)[nH]c(C(=O)Nc2ccc(Oc3ccccc3Cl)cc2)c1C | < 70 |
| Cn1c(=O)c2c(S(C)(=O)=O)snc2n(C)c1=O | < 70 |
| CS(=O)(=O)Cc1nc2ccccc2oc1=O | < 70 |
| Cc1cccc(Cn2ccc(NC(=O)c3ccc4c(c3)OCO4)n2)c1 | < 70 |
| CC(C)(C)c1ccc(Oc2ccc(N)cc2)cc1 | < 70 |
| CC(=O)O[C@H]1CC[C@]2(C)C3CC[C@]4(C)C(C5=CC(=O)OC5)CC[C@]4(O)C3CC[C@@H]2C1 (some centres not stated) | < 70 |
| Nc1nc2ccc(-c3cncc(Oc4ccc(F)cc4)c3)cc2[nH]1 | < 70 |
| CN(CC(=O)Nc1ccccc1N1CCCC1)Cc1ccc2ccccc2c1 | < 70 |
| CC(=O)Nc1cccc(Oc2ccc(C(=O)Nc3ccc4ccccc4c3)cc2[N+](=O)[O-])c1 | < 70 |
| Cc1cc(NCC(C)C)c2n[nH]c(-c3ccccc3)c2n1 | < 70 |
| COc1ccccc1CNC(=O)CCn1c(=O)[nH]c2ccsc2c1=O | < 70 |
| COc1cc(OC)cc(N2C(=O)N(Cc3ccc(C(C)(C)C)cc3)c3ccccc3S2(=O)=O)c1 | < 70 |
| Cc1cc(C)c2cc(C(=O)Nc3ccc(N4CCN(C)CC4)nc3)[nH]c2c1 | < 70 |
| COc1ccc(C(=O)NC(c2ccccc2Cl)c2cc(Cl)c3cccnc3c2O)cc1 (configuration not stated) | < 70 |
| CCC(=O)Nc1nnc(Cc2ccc(OC)c(OC)c2)s1 | < 70 |
| Cc1cc(NC(=O)c2ccc(Oc3ccc(Cl)cc3O)o2)no1 | < 70 |
| COc1ccccc1N1C(=N)SC(=Cc2ccc(OCc3ccccc3F)cc2)C1=O | < 70 |
| CCc1c(C(=O)Nc2ccn(CCc3ccccn3)n2)cnn1C(C)(C)C | < 70 |
| CNC(=O)C1Cc2ccccc2N1C(=O)Cc1ccc(F)cc1 (configuration not stated) | < 70 |
| C[C@H]1COc2c(N3CCN(C)CC3)c(F)cc3c(=O)c(C(=O)O)cn1c23 | < 70 |
| CCOC(=O)c1nn(CCc2ccccc2)c2c1CN(C(=O)c1cc(C)n[nH]1)CC2 | < 70 |

| SMILES | growth inhibition at single dose [%] |
| --- | --- |
| Cc1cc(Nc2cccc(C(F)(F)F)c2)n2ncc(C#N)c2n1 | < 70 |
| O=C(CSc1nnc(C2CC2)o1)NCCC1=CCCCC1 | < 70 |
| CCCCCn1c(=N)n(CC(O)COc2cccc(C)c2)c2ccccc21 (configuration not stated) | < 70 |
| COc1ccccc1C(=O)ON=C(N)Cc1cccc2ccccc12 | < 70 |
| COc1ccc2c(c1)CCCN2C(=O)c1occc1C | < 70 |
| CC(=O)c1c(C)[nH]c(C(=O)Nc2nc3ccccc3[nH]2)c1C | < 70 |
| CC1CC2=C(CC1CNCCCN(C)C)C(C)(C)CCC2 (configuration not stated) | < 70 |
| CCOC(=O)c1c(NC(=O)Cn2ncc(Cl)c(Cl)c2=O)sc(C(=O)NC)c1C | < 70 |
| COc1ccc(CCn2nc(C(=O)NC3CC3)c3c2CCN(C(=O)c2cc(C)n[nH]2)C3)cc1 | < 70 |
| O=C(Cn1ncc(Cl)c(Cl)c1=O)NCC(=O)Nc1ccc(F)c(F)c1F | < 70 |
| O=C(NNc1cc(N2CCCC2)nc(N2CCCC2)n1)c1ccccc1 | < 70 |
| CN(C)c1cc(CNC(=O)c2cc3c(F)cccc3s2)ccn1 | < 70 |
| COc1ccc(-[n+]2c(C)cn3c2CCc2ccccc2-3)cc1 | < 70 |
| Cc1nn2c(=O)c3c([nH]c2c1-c1ccc(Cl)cc1)CCCC3 | < 70 |
| CC1CCN(Cc2c(O)ccc3cc(-c4nc5ccccc5s4)c(=O)oc23)CC1 | < 70 |
| CCN(CC)CCCNc1ccnc2cc3ccccc3cc12 | < 70 |
| Cc1ccc(Cn2ccs/c2=N/C(=O)c2cc3c(s2)CCCCC3)cc1 | < 70 |
| Cc1[nH]c2ccccc2c1/C=N/n1c(-c2ccc(Cl)cc2Cl)cs/c1=N\CC1CCCO1 (configuration not stated) | < 70 |
| O=C(Nc1ccc2c(c1)OC1(CCCCC1)O2)c1ccc[nH]c1=O | < 70 |
| CC1Cc2cc(C(=O)CSc3nnc(Cc4cccs4)n3C)ccc2N1S(C)(=O)=O (configuration not stated) | < 70 |
| O=C(CSc1ccc2nnc(-c3cccc(F)c3)n2n1)Nc1ccc2c(c1)OCO2 | < 70 |
| CC(=O)NCC1CN(c2ccc(-c3ccc(CNCc4cn[nH]n4)cc3)c(F)c2)C(=O)O1 (configuration not stated) | < 70 |
| Cc1ccc2c(C)nc(Nc3nc(C)cc(-c4ccccc4)n3)nc2c1 | < 70 |

| SMILES | growth inhibition at single dose [%] |
| --- | --- |
| Cc1cc(N2CCN(C)CC2)n2ncc(-c3ccccc3Cl)c2n1 | < 70 |
| COc1cccc(Nc2nc(N)c3ccccc3n2)c1 | < 70 |
| N#C/C(C(=O)c1ccc([N+](=O)[O-])s1)=C1\Nc2ccccc2S1 | < 70 |
| CCOc1ccccc1C(=O)Nc1cccc(-c2nc3ncccn3c2C)c1 | < 70 |
| CNC(=O)c1ccc(CN(C2CC2)S(=O)(=O)c2cc(C)ccc2C)cc1 | < 70 |
| COc1ccc(C(=O)NC(c2ccc(Cl)cc2Cl)c2cc(Cl)c3cccnc3c2O)cc1 (configuration not stated) | < 70 |
| CN(C)Cc1ccc(CNc2ncnc3scc(-c4ccccc4)c23)cc1 | < 70 |
| CCCc1cc(NCCN(C)C)n2ncc(-c3ccccc3)c2n1 | < 70 |
| O=c1c2ccccc2[nH]c2ccc(Oc3ncnc4ccsc34)cc12 | < 70 |
| COc1ccc(CN=C2NN=C(c3cc4ccccc4o3)CS2)cc1 | < 70 |
| Oc1c(C(Nc2ccccn2)c2cccc(Oc3ccccc3)c2)ccc2cccnc12 (configuration not stated) | < 70 |
| O=C(NC1CC1)c1ccc(N2CCC(Cc3ccccc3)CC2)nc1 | < 70 |
| CC(C)c1cc(C(=O)Nc2nnc3ccccn23)c2cnn(C(C)C)c2n1 | < 70 |
| CCOC(=O)c1sc(N)c(C#N)c1COC(=O)c1c(CC)noc1C | < 70 |
| Cc1cc(=O)n2nc(CSc3nc4ccc(Cl)cc4c(=O)n3CC(C)C)sc2n1 | < 70 |
| Oc1ccc(-c2nc(-c3ccc4oc5ccc(-c6[nH]c(-c7ccc(O)cc7)nc6-c6ccccc6)cc5c4c3)c(-c3ccccc3)[nH]2)cc1 | < 70 |
| CC(C)(C)c1ccc(N[C@@H]2CCCC[C@H]2NC(=O)c2ccco2)cc1 | < 70 |
| Nc1nccnc1C(=O)Nc1ccc(C23CC4CC(CC(C4)C2)C3)cc1 | < 70 |
| CS(=O)(=O)N1CCC(CCn2nc(Cc3cccc4ccccc34)c3c(N)ncnc32)CC1 | < 70 |
| CC(=O)Nc1nnc(SCc2c(C)cc(C(C)(C)C)cc2C)s1 | < 70 |
| CO/N=C(\C(=O)OC)c1ccccc1CO/N=C(\C)c1cccc(C(F)(F)F)c1 | < 70 |
| COc1ccc(-c2csc(NC(=O)CN3CCN(c4ncnc5c4cnn5C)CC3)n2)cc1 | < 70 |
| O=C1C2=C(Nc3ccccc3SC2c2ccccc2)c2ccccc21 (configuration not stated) | < 70 |

| SMILES | growth inhibition at single dose [%] |
| --- | --- |
| CCN(CC)CCNc1ncnc2c1[nH]c1ccc(Cl)cc12 | < 70 |
| CCOC(=O)c1c(C)[nH]c(C(=O)CSc2nccn2C)c1C | < 70 |
| O=C(Nc1cccc(Cl)c1)c1cnc(N2CCN(c3ccncc3)CC2)c(Cl)c1 | < 70 |
| COCC(C)Nc1ncnc2scc(-c3ccc(OC)cc3)c12 (configuration not stated) | < 70 |
| Cc1cc(=O)oc2c1ccc1oc(C(=O)c3ccccc3)c(C)c12 | < 70 |
| Cc1nnc(NCc2cccc(Cl)c2)c2ccccc12 | < 70 |
| O=C(Nc1nc2c(s1)CCC2)c1cnn(-c2ccccc2)c1C1CC1 | < 70 |
| COc1ccc(S(=O)(=O)N(Cc2ccc(C(=O)NC3CC3)cc2)C2CC2)cc1OC | < 70 |
| CCCCCCCCCCCCCCCCOP(=O)([O-])OCC[N+](C)(C)C | < 70 |
| COc1ccc(-c2cc3c(nn2)-c2ccccc2C3=O)cc1 | < 70 |
| CC(O)(c1ccc(Cl)cc1)C(CN1CCCCC1)c1ccccc1 (configuration not stated) | < 70 |
| Cc1cc(Nc2ccc(C(F)(F)F)cc2)n2ccnc2n1 | < 70 |
| Cc1cc(=O)n2nc(-c3ccc(C(C)(C)C)cc3)cc2[nH]1 | < 70 |
| COc1ccc(-c2nc(-c3cccc(NC(=O)Cc4ccc(F)cc4)c3)no2)cc1OC | < 70 |
| CCc1ccc(Nc2cc(C)nc3nc(C)nn23)cc1 | < 70 |
| CCCCCC(=O)N1c2ccccc2N=C2CC(c3ccc(OC)c(OC)c3)CC(O)=C2C1c1ccc(C(F)(F)F)cc1 (configuration not stated) | < 70 |
| COc1ccc(-c2cc(=O)oc3c4c(ccc23)OCN(Cc2ccc(F)cc2)C4)cc1 | < 70 |
| CSc1nc2ccc(NC(=O)c3cn4ccccc4n3)cc2s1 | < 70 |
| Clc1cc2c(c3ncccc13)OCN(Cc1ccco1)C2 | < 70 |
| CCOc1cc2c(cc1OCC)C(c1cc(Cl)c(O)c(OCC)c1)NCC2 (configuration not stated) | < 70 |
| CC(Nc1ncnc2sccc12)c1ccc(-n2cncn2)cc1 (configuration not stated) | < 70 |
| CC(C)(C)c1cc(NC(=O)COc2ccc3[nH]c4ccccc4c(=O)c3c2)n(-c2ccccc2)n1 | < 70 |
| COc1ccccc1NC(=O)NCc1nc(-c2ccccc2)c[nH]1 | < 70 |
